From patent US10722514B2 (FLX Bio, Inc., priority 2017, dated 2020)

Biological target: T1, recombinant full-length USP7 (Homo sapiens, UniProt Q93009)
T1 construct: A 25 μl reaction volume containing recombinant full-length USP7 (62 pM)
Assay: USP7-mediated ubiquitin-rhodamine cleavage assay
Assay type: biochemical
Conditions: recombinant full-length USP7 62 pM; ubiquitin-rhodamine 100 nM; 30-minute incubation with compound, 1 hour reaction at room temperature; read-out: Potency: USP7 IC50
Method in brief: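 After compound and enzyme (62 pM) sat together 30 min at RT, 100 nM fluorogenic ubiquitin-rhodamine substrate was added for 1 h protected from light. Acetic acid quenched the reaction prior to the fluorescence read.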

T1 sequence (Q93009 whole entry): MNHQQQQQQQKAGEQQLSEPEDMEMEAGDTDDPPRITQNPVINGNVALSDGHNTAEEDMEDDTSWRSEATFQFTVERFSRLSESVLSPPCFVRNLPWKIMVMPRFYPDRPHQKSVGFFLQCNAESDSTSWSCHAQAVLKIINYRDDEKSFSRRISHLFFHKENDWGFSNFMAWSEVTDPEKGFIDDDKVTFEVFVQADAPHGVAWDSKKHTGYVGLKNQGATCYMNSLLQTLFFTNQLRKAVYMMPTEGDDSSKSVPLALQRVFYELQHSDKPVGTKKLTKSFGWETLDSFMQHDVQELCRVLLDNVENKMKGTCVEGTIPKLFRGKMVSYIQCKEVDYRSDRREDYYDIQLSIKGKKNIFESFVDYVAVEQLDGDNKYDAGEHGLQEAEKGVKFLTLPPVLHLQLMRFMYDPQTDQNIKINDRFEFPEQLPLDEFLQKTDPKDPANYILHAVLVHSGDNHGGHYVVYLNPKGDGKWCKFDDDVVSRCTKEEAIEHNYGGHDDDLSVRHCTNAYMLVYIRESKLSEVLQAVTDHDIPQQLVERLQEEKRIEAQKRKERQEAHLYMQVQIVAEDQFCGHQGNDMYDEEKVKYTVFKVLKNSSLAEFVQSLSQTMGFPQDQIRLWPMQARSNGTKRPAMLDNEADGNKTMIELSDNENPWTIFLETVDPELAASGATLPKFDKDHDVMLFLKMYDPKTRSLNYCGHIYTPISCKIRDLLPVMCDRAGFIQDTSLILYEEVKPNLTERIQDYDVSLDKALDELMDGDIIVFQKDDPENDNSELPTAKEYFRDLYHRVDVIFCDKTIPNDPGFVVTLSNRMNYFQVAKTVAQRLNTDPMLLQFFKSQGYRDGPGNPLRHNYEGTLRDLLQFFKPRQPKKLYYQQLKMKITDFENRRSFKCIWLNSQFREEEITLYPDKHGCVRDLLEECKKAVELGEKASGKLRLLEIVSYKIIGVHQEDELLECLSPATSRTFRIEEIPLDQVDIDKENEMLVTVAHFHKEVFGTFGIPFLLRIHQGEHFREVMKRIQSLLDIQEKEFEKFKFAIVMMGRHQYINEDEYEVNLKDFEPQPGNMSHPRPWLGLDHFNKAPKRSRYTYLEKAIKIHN

Compound | IC50
Cc1cc(C#N)cc(-c2ccnc3cc(CN4C(=O)CCC4=O)sc23)c1OC1CCNCC1 [Example 212, 3-(2-((2,5-Dioxopyrrolidin-1-yl)methyl)thieno[3,2-b]pyridin-7-yl)-5-methyl-4-(piperidin-4-yloxy)benzonitrile] | < 1000 nM
Cc1cc(Cl)cc(-c2ncnc3cc(CN4C(=O)C5C(C4=O)C5(C)C)sc23)c1O[C@@H]1CCNC[C@@H]1F (stereo partly drawn) [Example 377, 3-[[4-[5-chloro-2-[[(3S,4R)-3-fluoro-4-piperidyl]oxy]-3-methyl-phenyl]thieno[3,2-d]pyrimidin-6-yl]methyl]-6,6-dimethyl-3-azabicyclo[3.1.0]hexane-2,4-dione; 2,2,2-trifluoroacetic acid] | < 1000 nM
Cc1cc(C#N)cc(-c2ccnc3cc(COC4=NS(=O)(=O)CC4)sc23)c1O[C@@H]1CNC[C@@H]1F [Example 115, 3-(2-(((1,1-Dioxido-4,5-dihydroisothiazol-3-yl)oxy)methyl)thieno[3,2-b]pyridin-7-yl)-4-(((3R,4S)-4-fluoropyrrolidin-3-yl)oxy)-5-methylbenzonitrile] | 1000 to 10000 nM
Cc1cc(Cl)cc(-c2ccnc3cc(Cn4c(=O)ccn(C)c4=O)sc23)c1OC1CCN(C2COC2)CC1 [Example 255, 3-((7-(5-Chloro-3-methyl-2-((1-(oxetan-3-yl)piperidin-4-yl)oxy)phenyl)thieno[3,2-b]pyridin-2-yl)methyl)-1-methylpyrimidine-2,4(1H,3H)-dione] | < 1000 nM
CC[C@@H](c1cc2nccc(-c3cc(Cl)cc(C)c3OC3CCNCC3)c2s1)N1C(=O)CCC1=O [Example 256, (S)-1-(1-(7-(5-Chloro-3-methyl-2-(piperidin-4-yloxy)phenyl)thieno[3,2-b]pyridin-2-yl)propyl)pyrrolidine-2,5-dione] | 1000 to 10000 nM
Cc1cc(Cl)cc(-c2ccnc3cc(CN4C(=O)CC(C)(C)CC4=O)sc23)c1OC1CCNCC1 [Example 258, 1-((7-(5-Chloro-3-methyl-2-(piperidin-4-yloxy)phenyl)thieno[3,2-b]pyridin-2-yl)methyl)-4,4-dimethylpiperidine-2,6-dione] | < 1000 nM
Cc1cc(Cl)cc(-c2ccnc3cc(CN4C(=O)CCC4=O)sc23)c1O[C@H]1CC[C@H](N)C1 [Example 127, 1-((7-(2-(((1S,3S)-3-Aminocyclopentyl)oxy)-5-chloro-3-methylphenyl)thieno[3,2-b]pyridin-2-yl)methyl)pyrrolidine-2,5-dione] | < 1000 nM
Cc1cc(Cl)cc(-c2ccnc3cc(CN4C(=O)C5C(C4=O)C5(C)C)sc23)c1OC1CNCC(C)(C)C1 [Example 362, 3-[[7-[5-chloro-2-[[(3S)-5,5-dimethyl-3-piperidyl]oxy]-3-methyl-phenyl]thieno[3,2-b]pyridin-2-yl]methyl-6,6-dimethyl-3-azabicyclo[3.1.0]hexane-2,4-dione] | < 1000 nM
Cc1cc(Cl)cc(-c2ccnc3ccsc23)c1OC1CCCNCC1 (centres unmarked) [Example 266, 7-(2-(Azepan-4-yloxy)-5-chloro-3-methylphenyl)thieno[3,2-b]pyridine] | 1000 to 10000 nM
O=C1CCC(=O)N1Cc1cc2nccc(-c3cc(Cl)cc(Br)c3O[C@@H]3CNC[C@@H]3F)c2s1 [Example 102, 1-((7-(3-Bromo-5-chloro-2-(((3R,4S)-4-fluoropyrrolidin-3-yl)oxy)phenyl)thieno[3,2-b]pyridin-2-yl)methyl)pyrrolidine-2,5-dione] | < 1000 nM
Cc1cc(Cl)cc(-c2ccnc3cc(CO)sc23)c1O[C@@H]1CNC[C@@H]1C(C)C [Example 68, (7-(5-Chloro-2-(((3S,4S)-4-isopropylpyrrolidin-3-yl)oxy)-3-methylphenyl)thieno[3,2-b]pyridin-2-yl)methanol] | > 30000 nM

Same assay, conditions: recombinant full-length USP7 62 pM; ubiquitin-rhodamine 100 nM; 30-minute incubation, 1 hour reaction at room temperature; read-out: Potency (USP7 IC50)

Compound | IC50
COC[C@@H]1CCCN1C1CC(Oc2c(C)cc(Cl)cc2-c2ccnc3cc(Cn4c(=O)ccn(CC(F)(F)F)c4=O)sc23)C1 (stereo partly drawn) [Example 686, 3-[[7-[5-chloro-2-[3-[(2S)-2-(methoxymethyl)pyrrolidin-1-yl]cyclobutoxy]-3-methyl-phenyl]thieno[3,2-b]pyridin-2-yl]methyl]-1-(2,2,2-trifluoroethyl)pyrimidine-2,4-dione; 2,2,2-trifluoroacetic acid] | < 1000 nM
Cc1cc(Cl)cc(-c2ccnc3cc(Cn4c(=O)ccn(CC(F)(F)F)c4=O)sc23)c1OC1CCS(=O)(=O)CC1 [Example 680, 3-[[7-[5-chloro-2-(1,1-dioxoothian-4-yl)oxy-3-methyl-phenyl]thieno[3,2-b]pyridin-2-yl]methyl]-1-(2,2,2-trifluoroethyl)pyrimidine-2,4-dione] | < 1000 nM

Same assay, conditions: recombinant full-length USP7 62 pM; ubiquitin-rhodamine 100 nM; 30-minute pre-incubation, 1 hour reaction at room temperature; read-out: Potency (USP7 IC50)

Compound | IC50
CO[C@H]1CC(=O)N(Cc2cc3nccc(-c4cc(Cl)cc(C)c4O[C@H]4CCCNC4)c3s2)C1=O [Example 421, (3S)-1-[[7-[5-chloro-3-methyl-2-[[(3S)-3-piperidyl]oxy]phenyl]thieno[3,2-b]pyridin-2-yl]methyl]-3-methoxy-pyrrolidine-2,5-dione; 2,2,2-trifluoroacetic acid] | < 1000 nM
Cc1cc(Cl)cc(-c2ccnc3cc(Cn4c(=O)ccn(C)c4=O)sc23)c1O[C@H]1CCNC[C@]1(C)F [Example 545, 3-[[7-[5-chloro-2-[[(3S,4S)-3-fluoro-3-methyl-4-piperidyl]oxy]-3-methyl-phenyl]thieno[3,2-b]pyridin-2-yl]methyl]-1-methyl-pyrimidine-2,4-dione; 2,2,2-trifluoroacetic acid] | < 1000 nM
Cn1ccc(=O)n(Cc2cc3nccc(-c4cc(Cl)cc(C(F)F)c4O[C@H]4CCCNC4)c3s2)c1=O [Example 498, 3-[[7-[5-chloro-3-(difluoromethyl)-2-[[(3S)-3-piperidyl]oxy]phenyl]thieno[3,2-b]pyridin-2-yl]methyl]-1-methyl-pyrimidine-2,4-dione] | < 1000 nM
Cc1cc(Cl)cc(-c2ncnc3cc(Cn4c(=O)ccn(C)c4=O)sc23)c1O[C@H]1CCCNCC1 [Example 582, 3-[[4-[2-[(4S)-azepan-4-yl]oxy-5-chloro-3-methyl-phenyl]thieno[3,2-d]pyrimidin-6-yl]methyl]-1-methyl-pyrimidine-2,4-dione] | < 1000 nM
Cc1cc(Cl)cc(-c2ncnc3cc(Cn4c(=O)ccn(C(C)C)c4=O)sc23)c1O[C@H]1CCCN(C(C)C)C1 [Example 513, 3-[[4-[5-chloro-2-[[(3S)-1-isopropyl-3-piperidyl]oxy]-3-methyl-phenyl]thieno[3,2-d]pyrimidin-6-yl]methyl]-1-isopropyl-pyrimidine-2,4-dione] | < 1000 nM
Cc1cc(Cl)cc(-c2ncnc3cc(Cn4c(=O)ccn(C(C)C)c4=O)sc23)c1OC1CC2CNC1C2 (centres unmarked) [Example 509, 3-[[4-[2-(3-azabicyclo[2.2.1]heptan-5-yloxy)-5-chloro-3-methyl-phenyl]thieno[3,2-d]pyrimidin-6-yl]methyl]-1-isopropyl-pyrimidine-2,4-dione] | < 1000 nM
Cc1cc(Cl)cc(-c2ccnc3cc(Cn4c(=O)ccn(CC(F)(F)F)c4=O)sc23)c1O[C@H]1CCCN(C(=O)C(F)(F)F)C1 [Example 659, 3-[[7-[5-chloro-3-methyl-2-[[(3S)-1-(2,2,-trifluoroacetyl)-3-piperidyl]oxy]phenyl]thieno[3,2-b]pyridin-2-yl]methyl]-1-(2,2,2-trifluoroethyl)pyrimidine-2,4-dione] | < 1000 nM
Cc1cc(Cl)cc(-c2ncnc3cc(Cn4c(=O)ccn(CC(F)(F)F)c4=O)sc23)c1O[C@H]1CNC[C@@H]1C [Example 578, 3-[[4-[5-chloro-3-methyl-2-[(3R,4S)-4-methylpyrrolidin-3-yl]oxy-phenyl]thieno[3,2-d]pyrimidin-6-yl]methyl]-1-(2,2,2-trifluoroethyl)pyrimidine-2,4-dione] | < 1000 nM
Cc1cc(Cl)cc(-c2ccnc3cc(Cn4c(=O)ccn(CC(F)(F)F)c4=O)sc23)c1OCCN [Example 576, 3-[[7-[2-(2-aminoethoxy)-5-chloro-3-methyl-phenyl]thhieno[3,2-b]pyridin-2-yl]methyl]-1-(2,2,2-trifluoroethyl)pyrimidine-2,4-dione; 2,2,2-trifluoroacetic acid] | < 1000 nM
Cc1cc(Cl)cc(-c2ncnc3cc(Cn4c(=O)ccn(CC(F)(F)F)c4=O)sc23)c1O[C@H]1CC[C@H](N)C1 [Example 543, 3-[[4-[2-[(1S,3S)-3-aminocyclopentoxy]-5-chloro-3-methyl-phenyl]thieno[3,2-d]pyrimidin-6-yl]methyl]-1-(2,2,2-trifluoroethyl)pyrimidine-2,4-dione; 2,2,2-trifluoroacetic acid] | < 1000 nM
Cc1cc(Cl)cc(-c2ccnc3cc(Cn4c(=O)ccn(C)c4=O)sc23)c1OCC(C)N (centres unmarked) [Example 554, 3-[[7-[2-(2-aminopropoxy)-5-chloro-3-methyl-phenyl]thieno[3,2-b]pyridin-2-yl]methyl]-1-methyl-pyrimidine-2,4-dione; 2,2,2-trifluoroacetic acid] | < 1000 nM
Cc1cc(Cl)cc(-c2ccnc3cc(Cn4c(=O)ccn(C)c4=O)sc23)c1OC1CC2CC1CN2 (centres unmarked) [Example 476, 3-[[7-[2-(2-azabicyclo[2.2.1]heptan-5-yloxy)-5-chloro-3-methyl-phenyl]thieno[3,2-b]pyridin-2-yl]methyl]-1-methyl-pyrimidine-2,4-dione; 2,2,2-trifluoroacetic acid] | < 1000 nM
Cc1cc(Cl)cc(-c2ncnc3cc(Cn4c(=O)ccn(CC(F)(F)F)c4=O)sc23)c1O[C@@H]1CCNC[C@@H]1C [Example 520, 3-[[4-[5-chloro-3-methyl-2-[[(3S,4R)-3-methyl-4-piperidyl]oxy]phenyl]thieno[3,2-d]pyrimidin-6-yl]methyl]-1-(2,2,2-trifluoroethyl)pyrimidine-2,4-dione] | < 1000 nM
